The text below walks through data of publication PMC11510433, “Exploration of the Solubility Hyperspace of Selected Active Pharmaceutical Ingredients in Choline- and Betaine-Based Deep Eutectic Solvents: Machine Learning Modeling and Experimental Validation” (Molecules, 2024).

Like-named read-outs stand apart in the source and are kept apart here.

On the set-up of series [1]: method as in ref 2017-Zhong-10.1021acs.jced.7b00065. The following applies: solvent 1-propanol, ref 2017-Zhong-10.1021acs.jced.7b00065, cited from earlier work.
The conditions of series [2]: A:D 1:1, x*DES 1.0 (water 0.00), T 25.0 °C, ref 2024-Cysewski-10.3390molecules29102296, cited from earlier work.
Series [3] is described as follows: shake-flask solubility of sulfonamides in choline chloride- and betaine-based deep eutectic solvents (new measurements). Format: physicochemical. The method, then: The solubility measurements were preceded by the determination of the calibration curves for the studied sulfonamides. Stock solutions of these compounds were prepared in methanol and subsequently diluted. The obtained series of solutions with decreasing concentrations were then measured spectrophotometrically using an A360 spectrophotometer from AOE Instruments (Shanghai, China) in the wavelength range of 200 nm to 500 nm. Their characteristic wavelengths were determined, and the corresponding absorbance values were plotted against the concentrations of the solutions. Three separate curves were prepared, and the obtained values were averaged. The calibration curves were validated in terms of their linearity, expressed by the determination coefficient R^2, as well as the limits of detection (LOD) and quantification (LOQ).
For determining the solubility of the studied sulfonamides in different eutectic compositions, a standard shake-flask procedure was applied.
The first step in this procedure involved the preparation of the deep eutectic solvents, which was performed by combining a hydrogen bond donor with a hydrogen bond acceptor. The HBA:HBD molar ratio was set to 1:2. […] The eutectics were prepared by weighing appropriate amounts of the two counterparts in glass vessels and heating them until a homogenous solution was obtained.
The samples of sulfonamides in DESs were prepared by adding an excess amount of the solute to the test tube, followed by an addition of the specific eutectic. The saturated solutions obtained in this manner were placed in an Orbital Shaker Incubator ES-20/60 from Biosan (Riga, Latvia) and heated at 25 °C, 30 °C, 35 °C, or 40 °C for 24 h with stirring at 60 rev/min. Before the measurements, the samples were filtered using a 0.22 µm pore-size PTFE syringe filter. The spectra of the filtered solutions were recorded after the dilution with methanol in the 200 nm–500 nm wavelength range with a 1 nm resolution. […] The absorbance values found at the characteristic wavelengths were used together with the linear regression equations to calculate the concentration of the considered solutes. Simultaneously, for the computation of the mole fraction solubility, the density of the samples was determined by weighing 1 mL of the sample on a RADWAG (Radom, Poland) AS 110 R2.PLUS analytical balance with 0.1 mg precision. Three separate samples were measured for each system, and the values were averaged.

On the set-up of series [4]: method as in ref 2014-Delgado-10.1007s10953-014-0169-0. The following applies: 1-Propanol + water, ref 2014-Delgado-10.1007s10953-014-0169-0, cited from earlier work.
Where [5] appears, read: best-performing ChCl-TEG system, 1:2, 25 °C.

Regarding `Cn1c(=O)c2c(ncn2C)n(C)c1=O` [caffeine], the “log(x1)exp” value was -2.932 in series [1] (T 14.86 °C), -2.752 in series [1] (T 24.96 °C) and -2.550 in series [1] (T 34.94 °C).
In the case of `CC(C)Cc1ccc(C(C)C(=O)O)cc1` (stereo not shown) [ibuprofen], the “log(x1)exp” value in series [2] (choline chloride + DEG) was -0.616; in series [2] (choline chloride + P2D) it was -0.793; in series [2] (choline chloride + TEG), -0.580.
`CCCN(CCC)S(=O)(=O)c1ccc(C(=O)O)cc1` [probenecid] gave a Mole fraction solubility in series [3] (setting [5]) of 0.00124 mole fraction.
Turning to `Cc1cc(C)nc(NS(=O)(=O)c2ccc(N)cc2)n1` [sulfamethazine], the “log(x1)exp” value in series [4] (x2* 0.0322, x3* 0.97, T 20.00 °C) is recorded as -4.226; in series [4] (x2* 0.0322, x3* 0.97, T 25.00 °C) it was -4.133; in series [4] (x2* 0.0322, x3* 0.97, T 30.00 °C) it was -4.044.
For the molecule `O=C(O)c1cc(/N=N/c2ccc(S(=O)(=O)Nc3ccccn3)cc2)ccc1O` [sulfasalazine], the Mole fraction solubility in series [3] (DES BI-DEG, HBA:HBD 1:2, 25°C) is listed as 0.67(±0.09) mole fraction ∙10^4; in series [3] (DES BI-DEG, HBA:HBD 1:2, 30°C), 0.70(±0.08) mole fraction ∙10^4; in series [3] (DES BI-DEG, HBA:HBD 1:2, 35°C), 0.75(±0.06) mole fraction ∙10^4; in series [3] (DES BI-DEG, HBA:HBD 1:2, 40°C) it was 0.79(±0.05) mole fraction ∙10^4; in series [3] (DES BI-ETG, HBA:HBD 1:2, 25°C), 0.55(±0.07) mole fraction ∙10^4; in series [3] (DES BI-ETG, HBA:HBD 1:2, 30°C), 0.58(±0.02) mole fraction ∙10^4. In addition, the Mole fraction solubility is given as 0.62(±0.06) mole fraction ∙10^4 in series [3] (DES BI-ETG, HBA:HBD 1:2, 35°C); 0.67(±0.08) mole fraction ∙10^4 in series [3] (DES BI-ETG, HBA:HBD 1:2, 40°C); 0.41(±0.06) mole fraction ∙10^4 in series [3] (DES BI-P2D, HBA:HBD 1:2, 25°C); 0.46(±0.10) mole fraction ∙10^4 in series [3] (DES BI-P2D, HBA:HBD 1:2, 30°C); 0.49(±0.08) mole fraction ∙10^4 in series [3] (DES BI-P2D, HBA:HBD 1:2, 35°C); 0.52(±0.04) mole fraction ∙10^4 in series [3] (DES BI-P2D, HBA:HBD 1:2, 40°C). Further, the Mole fraction solubility in series [3] (DES BI-TEG, HBA:HBD 1:2, 25°C) was 0.69(±0.04) mole fraction ∙10^4; in series [3] (DES BI-TEG, HBA:HBD 1:2, 30°C), 0.72(±0.02) mole fraction ∙10^4; in series [3] (DES BI-TEG, HBA:HBD 1:2, 35°C) it was 0.77(±0.09) mole fraction ∙10^4; in series [3] (DES BI-TEG, HBA:HBD 1:2, 40°C), 0.81(±0.07) mole fraction ∙10^4; in series [3] (DES ChCl-DEG, HBA:HBD 1:2, 25°C) it was 0.71(±0.09) mole fraction ∙10^4; in series [3] (DES ChCl-DEG, HBA:HBD 1:2, 30°C) it was 0.75(±0.07) mole fraction ∙10^4. Besides, the Mole fraction solubility is reported as 0.80(±0.14) mole fraction ∙10^4 in series [3] (DES ChCl-DEG, HBA:HBD 1:2, 35°C); 0.83(±0.02) mole fraction ∙10^4 in series [3] (DES ChCl-DEG, HBA:HBD 1:2, 40°C); 0.62(±0.09) mole fraction ∙10^4 in series [3] (DES ChCl-ETG, HBA:HBD 1:2, 25°C); 0.65(±0.01) mole fraction ∙10^4 in series [3] (DES ChCl-ETG, HBA:HBD 1:2, 30°C); 0.69(±0.06) mole fraction ∙10^4 in series [3] (DES ChCl-ETG, HBA:HBD 1:2, 35°C); 0.72(±0.08) mole fraction ∙10^4 in series [3] (DES ChCl-ETG, HBA:HBD 1:2, 40°C). The Mole fraction solubility in series [3] (DES ChCl-P2D, HBA:HBD 1:2, 25°C) is recorded as 0.50(±0.08) mole fraction ∙10^4; in series [3] (DES ChCl-P2D, HBA:HBD 1:2, 30°C) it was 0.53(±0.03) mole fraction ∙10^4; in series [3] (DES ChCl-P2D, HBA:HBD 1:2, 35°C), 0.56(±0.07) mole fraction ∙10^4; in series [3] (DES ChCl-P2D, HBA:HBD 1:2, 40°C) it was 0.59(±0.01) mole fraction ∙10^4; in series [3] (DES ChCl-TEG, HBA:HBD 1:2, 25°C) it was 0.75(±0.05) mole fraction ∙10^4; in series [3] (DES ChCl-TEG, HBA:HBD 1:2, 30°C), 0.78(±0.07) mole fraction ∙10^4. Moreover, the Mole fraction solubility in series [3] (DES ChCl-TEG, HBA:HBD 1:2, 35°C) is 0.82(±0.01) mole fraction ∙10^4; in series [3] (DES ChCl-TEG, HBA:HBD 1:2, 40°C) it was 0.86(±0.02) mole fraction ∙10^4; in series [3] (setting [5]), 0.000075 mole fraction.
